The numbers were not newly measured in patent US20260335331A1, “ORAL FORMULATION OF DIAMINOPHENOTHIAZINES AND METHODS OF MAKING AND USING THE SAME IN THE TREATMENT AND/OR PREVENTION OF DISEASES” (priority 2022, published 2026), which cites them from elsewhere.

This data set deals with Macrorhabdus ornithogaster. The conditions noted are these: background statement.

Consider `C[C@@H]1[C@H](O)[C@@H](C)/C=C/C=C/C=C/C=C/C=C/C=C/C=C/[C@H](O[C@@H]2O[C@H](C)[C@@H](O)[C@H](N)[C@@H]2O)C[C@@H]2O[C@](O)(C[C@@H](O)C[C@@H](O)[C@H](O)CC[C@@H](O)C[C@@H](O)CC(=O)O[C@H]1C)C[C@H](O)[C@H]2C(=O)O` [amphotericin B], for which the “success in treatment of avian megalobacteriosis” value is listed as “Some success has been observed”.
